“Also recorded” adds a separate entry of the source.
How the values were obtained:
[1] = tested on: normal human amniotic WISH cells; test: MTT cell viability, normal WISH cells; format: cell-based; details: 48 h, mean ± SE, read-out: IC50, normal cell line (WISH)
Protocol: (§1) 3-(4,5-dimethylthiazol-2-yl)-2,5-diphenyltetrazolium bromide (MTT) assay was used to measure cell viability according to a prior study. The cells were grown in 96-well plates at a density of 1 × 10^4 cells/well, treated for 48 h with varied 5a (0–200 µM) or the reference drug DOX (0–100 µM) dosages, and then exposed to analysis. The culture medium was taken out after 48 h of incubation, and the cells were given two gentle washes with 1× ice-cold phosphate-buffered saline (PBS). The MTT (10×) has been diluted to a 1× solution in the culture medium (1 volume 10× MTT in 9 volumes medium) and 200 μl was added to each well. The microplate has been kept in a cell culture incubator at 37 °C for 4 h. Afterthat, 180 μl of the MTT solution was taken out and 100 μl of DMSO was put to each well. The microplate was incubated for 15 min with shaking at room temperature. The absorbance of each well was ultimately measured at 630 nm using a Model 680 microplate reader (Bio-Rad, CA, USA)[33].

[2] = tested on: MCF-7 breast cancer cells; test: MTT cell viability, MCF-7; format: cell-based; details: Homo sapiens, MCF7, 48 h, mean ± SE
Protocol: as §1

MCF-7 cells [3] = test: Cell morphology by inverted light microscope; format: cell-based, human; details: IC50 dose, 48 h
Protocol: Using an inverted light microscope (Olympus, USA), the morphological alterations of the treated and untreated cells were evaluated and documented after 48 h of incubation.

[4] = tested on: phospho-SAPK/JNK (Thr183/Tyr185); test: Immunoblotting of p-JNK in MCF-7; format: cell-based, human; details: MCF-7, IC50 dose, 48 h, western blot, vs untreated cells
Protocol: (§2) Western blot analysis was conducted according to[37]. The ReadyPrepTM protein extraction kit (total protein) provided by Bio-Rad Inc (Cat #163-2086) was used to isolate proteins according to the manufacturer’s instructions. The Bradford protein assay kit (SK3041) from Bio Basic Inc. (Markham Ontario L3R 8T4 Canada) was then used to perform quantitative protein analysis. Afterward, a 20 μg protein concentration of each sample was subjected to 12% sodium dodecyl sulfate–polyacrylamide gel electrophoresis (SDS-PAGE), followed by transfer to polyvinylidene fluoride (PVDF) membranes (BioRad). Polyacrylamide gels were performed using the TGX Stain-Free™ FastCast™ Acrylamide Kit (SDS-PAGE) provided by Bio-Rad Laboratories Inc. (Cat # 161-0181). The SDS-PAGE TGX Stain-Free FastCast was prepared according to the manufacturer's instructions. The membrane was blocked in tris-buffered saline with Tween 20 (TBST) buffer and 3% bovine serum albumin (BSA) for 1 h at room temperature followed by probing with primary antibodies against phospho-RAS-GRF1 (Ser916) (1: 1000, Cell Signaling Technology, #3321), phospho-SAPK/JNK (Thr183/Tyr185) (1:1000, Cell Signaling Technology, #9251), p53 (1:1000, Cell Signaling Technology, #9282) and β-actin (1:3000, Cell Signaling Technology, #8457). […]

PI3K = test: RT-PCR analysis of PI3K gene expression in MCF-7; format: cell-based, human; details: MCF-7, IC50 dose, 48 h, vs untreated cells
Protocol: (§3) The total RNA was isolated from the MCF-7 cells using Trizol (Cat# R2072, ZYMO […] CORP. USA) according to the manufacturer’s instructions. Its quantity and quality were assessed using a Beckman dual spectrophotometer. The cDNA was performed using a miScript Reverse Transcription Kit (QIAGEN) Kit (218061) and a miScript SYBR Green PCR Kit was used for mRNA detection with quantification (218073). Reverse transcription was running on a StepOne system (Applied Biosystems, Foster City, CA, USA) in a total volume of 10 μL containing 5 μL of the miScript RT enzyme and […]. Real-time PCR for mRNA was performed on the same system in a total volume of 20 μL containing 10 μL of a 2× QuantiTect® SYBR Green PCR Master Mix and 10 ng of the cDNA template. The PCR thermal cycling conditions for the mRNA were 2 min at 50 °C, 30 s at 95 °C, 40 cycles of 95 °C for 5 s, and 60 °C for 34 s. The expression of the mRNA target genes was normalized to the expression of human GAPDH quantified using the 2^−ΔΔCt method. Table 1 contains a list of the primers used in the research.

[5] = tested on: PANC-1 pancreatic cancer cells; test: MTT cell viability, PANC-1; format: cell-based; details: Homo sapiens, 48 h, mean ± SE
Protocol: as §1

[6] = tested on: Caco-2 colorectal cancer cells; test: MTT cell viability, Caco-2; format: cell-based; details: Homo sapiens, 48 h, mean ± SE
Protocol: as §1

MCF-7 cells [7] = test: Cell cycle analysis by flow cytometry (PI); format: cell-based, human; details: MCF-7, IC50 dose, 48 h; untreated control 8.6%
Protocol: Using flow cytometry, cell cycle analysis was carried out via a documented method of[35] with a few changes. After trypsinization, the MCF-7 cells were centrifuged at 4500 rpm for 5 min, followed by two washings, resuspension in 1× PBS, fixation with ice-cold absolute ethanol, and incubation at 20 °C for 24 h. Following two PBS washes, the cells were then resuspended in (0.05 mg/mL) propidium iodide (PI)[32] solution containing 50 µL (0.2 mg/mL) of RNase A, and 0.1% v/v Triton X-100 in PBS. Then, the cells were incubated at room temperature for 30–60 min in the dark. Finally, the pellet was washed with 1⤫ PBS and resuspended in 300 µL 1× PBS, and subjected to analysis on Accuri C6 flow cytometer (Becton Dickinson, Franklin Lake, BD, USA) equipped with PE X FL2 channels.

p21 = test: RT-PCR analysis of p21 gene expression in MCF-7; format: cell-based, human; details: MCF-7, IC50 dose, 48 h, vs untreated cells
Protocol: as §3

[8] = tested on: phospho-RAS-GRF1 (Ser916); test: Immunoblotting of p-RAS in MCF-7; format: cell-based, human; details: MCF-7, IC50 dose, 48 h, western blot, vs untreated cells
Protocol: as §2

[9] = tested on: MDA-MB-231 breast cancer cells; test: MTT cell viability, MDA-MB-231; format: cell-based; details: Homo sapiens, 48 h, mean ± SE
Protocol: as §1

p53 = test: Immunoblotting of p53 in MCF-7; format: cell-based, human; details: MCF-7, IC50 dose, 48 h, immunoblot, vs untreated cells
Protocol: as §2

Akt = test: RT-PCR analysis of Akt gene expression in MCF-7; format: cell-based, human; details: MCF-7, IC50 dose, 48 h, vs untreated cells
Protocol: as §3

Row | melting point | IC50 [2] | IC50 [5] | IC50 [6] | IC50 [9] | Compound | IC50 [1] | Morphological features of MCF-7 cells (MCF-7 cells [3]) | p-JNK protein expression [4] | mRNA transcript level of PI3K (PI3K) | Percentage of cells at sub-G0/G1 (MCF-7 cells [7]) | p21 gene expression (p21) | levels of p-RAS proteins [8] | p53 protein expression (p53) | mRNA transcript level of Akt (Akt)
1 | 258 °C |  |  |  |  | COc1cc(/C=C/C(=O)C2=C(C)NC(=S)NC2c2cccs2)ccc1O (stereo not shown) [2b, [E]-3-(4-hydroxy-3-methoxyphenyl)-1-(6-methyl-4-(thiophen-2-yl)-2-thioxo-1,2,3,4-tetrahydropyrimidin-5-yl)prop-2-en-1-one] |  |  |  |  |  |  |  |  | 
2 |  | 2.26 ± 1.4 µM |  |  |  | COc1cccc2c1C(=O)c1c(O)c3c(c(O)c1C2=O)C[C@@](O)(C(=O)CO)C[C@@H]3O[C@H]1C[C@H](N)[C@H](O)[C@H](C)O1 [DOX, Doxorubicin, reference compound] | 24.5 ± 2.1 µM |  |  |  |  |  |  |  | 
3 |  | 2.62 ± 1.6 µM | 23.6 ± 2.4 µM | 14.8 ± 2.5 µM | 6.78 ± 2.2 µM | COc1cc(C2CC(C3=C(C)NC(=S)NC3c3ccc(N(C)C)cc3)=NN2c2ccccc2)ccc1O (stereo not shown) [compound 5a, 4-(4-(dimethylamino)phenyl)-5-(5-(4-hydroxy-3-methoxyphenyl)-1-phenyl-4,5-dihydro-1H-pyrazol-3-yl)-6-methyl-3,4-dihydropyrimidine-2(1H)-thione] | 180 ± 2.7 µM | detectable morphological signs of apoptosis | significant reduction | significantly reduced; also recorded: downregulated | 48.5% | significantly upregulated | significantly decreased | significant elevation | significantly reduced; also recorded: downregulated
